Columns and labels:
Assay in all cases: relative viability (nuclei count vs DMSO), 5 days (fraction); higher = more cells survive
Carfilzomib + Phenformin = compound: CC(C)C[C@H](NC(=O)[C@H](CCc1ccccc1)NC(=O)CN1CCOCC1)C(=O)N[C@@H](Cc1ccccc1)C(=O)N[C@@H](CC(C)C)C(=O)[C@@]1(C)CO1 [Carfilzomib] + N=C(N)NC(=N)NCCc1ccccc1 [Phenformin] (partner 250 µM)
Summary of the method: (§1)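 Lung cancer cell lines in 1536-well plates were dosed by pin tool the day after seeding, either with one drug alone or with a fixed anchor-drug dose plus five library-drug doses (not always all listed) in √10 steps. After 5 days, cells were fixed and their nuclei stained in one step (final 0.05% Triton X-100, 1% formaldehyde, 1 ug/ml Hoechst), then counted on 4× images. Relative viability is the nuclei count in treated wells divided by that in vehicle wells. Values are medians of duplicate plates.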

Crizotinib + Tozasertib = compound: C[C@@H](Oc1cc(-c2cnn(C3CCNCC3)c2)cnc1N)c1c(Cl)ccc(F)c1Cl [Crizotinib] + Cc1cc(Nc2cc(N3CCN(C)CC3)nc(Sc3ccc(NC(=O)C4CC4)cc3)n2)n[nH]1 [Tozasertib] (partner 0.1 µM)
Summary of the method: as §1

Olaparib + Luminespib = compound: O=C(c1cc(Cc2n[nH]c(=O)c3ccccc23)ccc1F)N1CCN(C(=O)C2CC2)CC1 [Olaparib] + CCNC(=O)c1noc(-c2cc(C(C)C)c(O)cc2O)c1-c1ccc(CN2CCOCC2)cc1 [Luminespib] (partner 0.01 µM)
Summary of the method: as §1

Olaparib + Vorinostat = compound: O=C(c1cc(Cc2n[nH]c(=O)c3ccccc23)ccc1F)N1CCN(C(=O)C2CC2)CC1 [Olaparib] + O=C(CCCCCCC(=O)Nc1ccccc1)NO [Vorinostat] (partner 1 µM)
Summary of the method: as §1

HARA
relative viability (Carfilzomib + Phenformin; first compound 0.001 µM): 0.478 | relative viability (Carfilzomib + Phenformin; first compound 0.003162 µM): 0.506 | relative viability (Carfilzomib + Phenformin; first compound 0.01 µM): 0.403 | relative viability (Carfilzomib + Phenformin; first compound 0.03162 µM): 0.0435 | relative viability (Carfilzomib + Phenformin; first compound 0.1 µM): 0.0629 | relative viability (Crizotinib + Tozasertib; first compound 0.01 µM): 0.106 | relative viability (Crizotinib + Tozasertib; first compound 0.03162 µM): 0.079 | relative viability (Crizotinib + Tozasertib; first compound 0.1 µM): 0.1 | relative viability (Crizotinib + Tozasertib; first compound 1 µM): 0.116 | relative viability (Olaparib + Luminespib; first compound 0.08 µM): 1.22 | relative viability (Olaparib + Luminespib; first compound 0.253 µM): 0.531 | relative viability (Olaparib + Luminespib; first compound 2.53 µM): 0.8 | relative viability (Olaparib + Luminespib; first compound 8 µM): 0.523 | relative viability (Olaparib + Vorinostat; first compound 0.08 µM): 0.45 | relative viability (Olaparib + Vorinostat; first compound 0.253 µM): 0.472 | relative viability (Olaparib + Vorinostat; first compound 2.53 µM): 0.553 | relative viability (Olaparib + Vorinostat; first compound 8 µM): 0.507

HCC-15
relative viability (Carfilzomib + Phenformin; first compound 0.001 µM): 0.443 | relative viability (Carfilzomib + Phenformin; first compound 0.003162 µM): 0.538 | relative viability (Carfilzomib + Phenformin; first compound 0.01 µM): 0.48 | relative viability (Carfilzomib + Phenformin; first compound 0.03162 µM): 0.222 | relative viability (Carfilzomib + Phenformin; first compound 0.1 µM): 0.1 | relative viability (Crizotinib + Tozasertib; first compound 0.01 µM): 0.408 | relative viability (Crizotinib + Tozasertib; first compound 0.03162 µM): 0.377 | relative viability (Crizotinib + Tozasertib; first compound 0.1 µM): 0.389 | relative viability (Crizotinib + Tozasertib; first compound 1 µM): 0.339 | relative viability (Olaparib + Luminespib; first compound 0.08 µM): 0.462 | relative viability (Olaparib + Luminespib; first compound 0.253 µM): 0.372 | relative viability (Olaparib + Luminespib; first compound 2.53 µM): 0.346 | relative viability (Olaparib + Luminespib; first compound 8 µM): 0.191 | relative viability (Olaparib + Vorinostat; first compound 0.08 µM): 0.956 | relative viability (Olaparib + Vorinostat; first compound 0.253 µM): 0.819 | relative viability (Olaparib + Vorinostat; first compound 2.53 µM): 0.83 | relative viability (Olaparib + Vorinostat; first compound 8 µM): 0.687

HCC-44
relative viability (Carfilzomib + Phenformin; first compound 0.001 µM): 0.169 | relative viability (Carfilzomib + Phenformin; first compound 0.003162 µM): 0.289 | relative viability (Carfilzomib + Phenformin; first compound 0.01 µM): 0.145 | relative viability (Carfilzomib + Phenformin; first compound 0.03162 µM): 0.107 | relative viability (Carfilzomib + Phenformin; first compound 0.1 µM): 0.122 | relative viability (Crizotinib + Tozasertib; first compound 0.01 µM): 0.936 | relative viability (Crizotinib + Tozasertib; first compound 0.1 µM): 0.992 | relative viability (Crizotinib + Tozasertib; first compound 0.3162 µM): 0.836 | relative viability (Crizotinib + Tozasertib; first compound 1 µM): 1.01 | relative viability (Olaparib + Luminespib; first compound 0.08 µM): 1.44 | relative viability (Olaparib + Luminespib; first compound 0.253 µM): 0.984 | relative viability (Olaparib + Luminespib; first compound 2.53 µM): 0.449 | relative viability (Olaparib + Luminespib; first compound 8 µM): 0.411 | relative viability (Olaparib + Vorinostat; first compound 0.08 µM): 1.12 | relative viability (Olaparib + Vorinostat; first compound 0.253 µM): 1.06 | relative viability (Olaparib + Vorinostat; first compound 2.53 µM): 1.22 | relative viability (Olaparib + Vorinostat; first compound 8 µM): 1.16

HCC-827
relative viability (Carfilzomib + Phenformin; first compound 0.001 µM): 0.37 | relative viability (Carfilzomib + Phenformin; first compound 0.003162 µM): 0.44 | relative viability (Carfilzomib + Phenformin; first compound 0.01 µM): 0.428 | relative viability (Carfilzomib + Phenformin; first compound 0.03162 µM): 0.394 | relative viability (Carfilzomib + Phenformin; first compound 0.1 µM): 0.279 | relative viability (Crizotinib + Tozasertib; first compound 0.01 µM): 0.427 | relative viability (Crizotinib + Tozasertib; first compound 0.03162 µM): 0.438 | relative viability (Crizotinib + Tozasertib; first compound 0.1 µM): 0.414 | relative viability (Crizotinib + Tozasertib; first compound 0.3162 µM): 0.413 | relative viability (Crizotinib + Tozasertib; first compound 1 µM): 0.415 | relative viability (Olaparib + Luminespib; first compound 0.08 µM): 0.544 | relative viability (Olaparib + Luminespib; first compound 0.253 µM): 0.585 | relative viability (Olaparib + Luminespib; first compound 2.53 µM): 0.629 | relative viability (Olaparib + Luminespib; first compound 8 µM): 0.368 | relative viability (Olaparib + Vorinostat; first compound 0.08 µM): 0.818 | relative viability (Olaparib + Vorinostat; first compound 0.253 µM): 0.723 | relative viability (Olaparib + Vorinostat; first compound 2.53 µM): 0.893 | relative viability (Olaparib + Vorinostat; first compound 8 µM): 0.766

HOP-62
relative viability (Carfilzomib + Phenformin; first compound 0.001 µM): 0.749 | relative viability (Carfilzomib + Phenformin; first compound 0.003162 µM): 0.694 | relative viability (Carfilzomib + Phenformin; first compound 0.01 µM): 0.415 | relative viability (Carfilzomib + Phenformin; first compound 0.03162 µM): 0.232 | relative viability (Carfilzomib + Phenformin; first compound 0.1 µM): 0.0898 | relative viability (Crizotinib + Tozasertib; first compound 0.01 µM): 0.396 | relative viability (Crizotinib + Tozasertib; first compound 0.03162 µM): 0.33 | relative viability (Crizotinib + Tozasertib; first compound 0.1 µM): 0.354 | relative viability (Crizotinib + Tozasertib; first compound 0.3162 µM): 0.322 | relative viability (Crizotinib + Tozasertib; first compound 1 µM): 0.383 | relative viability (Olaparib + Luminespib; first compound 0.08 µM): 1 | relative viability (Olaparib + Luminespib; first compound 0.253 µM): 0.809 | relative viability (Olaparib + Luminespib; first compound 2.53 µM): 0.744 | relative viability (Olaparib + Luminespib; first compound 8 µM): 0.476 | relative viability (Olaparib + Vorinostat; first compound 0.08 µM): 0.757 | relative viability (Olaparib + Vorinostat; first compound 0.253 µM): 0.575 | relative viability (Olaparib + Vorinostat; first compound 2.53 µM): 0.675 | relative viability (Olaparib + Vorinostat; first compound 8 µM): 0.379

LC-2-ad
relative viability (Carfilzomib + Phenformin; first compound 0.001 µM): 0.567 | relative viability (Carfilzomib + Phenformin; first compound 0.003162 µM): 0.668 | relative viability (Carfilzomib + Phenformin; first compound 0.01 µM): 0.612 | relative viability (Carfilzomib + Phenformin; first compound 0.03162 µM): 0.453 | relative viability (Carfilzomib + Phenformin; first compound 0.1 µM): 0.181 | relative viability (Crizotinib + Tozasertib; first compound 0.01 µM): 0.425 | relative viability (Crizotinib + Tozasertib; first compound 0.03162 µM): 0.454 | relative viability (Crizotinib + Tozasertib; first compound 0.1 µM): 0.431 | relative viability (Crizotinib + Tozasertib; first compound 0.3162 µM): 0.423 | relative viability (Crizotinib + Tozasertib; first compound 1 µM): 0.47 | relative viability (Olaparib + Luminespib; first compound 0.08 µM): 1.11 | relative viability (Olaparib + Luminespib; first compound 0.253 µM): 0.865 | relative viability (Olaparib + Luminespib; first compound 2.53 µM): 0.765 | relative viability (Olaparib + Luminespib; first compound 8 µM): 0.811 | relative viability (Olaparib + Vorinostat; first compound 0.08 µM): 0.749 | relative viability (Olaparib + Vorinostat; first compound 0.253 µM): 0.604 | relative viability (Olaparib + Vorinostat; first compound 2.53 µM): 0.66 | relative viability (Olaparib + Vorinostat; first compound 8 µM): 0.495

LCLC-97TM1
relative viability (Carfilzomib + Phenformin; first compound 0.001 µM): 0.423 | relative viability (Carfilzomib + Phenformin; first compound 0.003162 µM): 0.401 | relative viability (Carfilzomib + Phenformin; first compound 0.01 µM): 0.497 | relative viability (Carfilzomib + Phenformin; first compound 0.03162 µM): 0.302 | relative viability (Carfilzomib + Phenformin; first compound 0.1 µM): 0.147 | relative viability (Crizotinib + Tozasertib; first compound 0.01 µM): 0.19 | relative viability (Crizotinib + Tozasertib; first compound 0.03162 µM): 0.234 | relative viability (Crizotinib + Tozasertib; first compound 0.1 µM): 0.21 | relative viability (Crizotinib + Tozasertib; first compound 0.3162 µM): 0.201 | relative viability (Crizotinib + Tozasertib; first compound 1 µM): 0.224 | relative viability (Olaparib + Luminespib; first compound 0.08 µM): 0.756 | relative viability (Olaparib + Luminespib; first compound 0.253 µM): 0.651 | relative viability (Olaparib + Luminespib; first compound 2.53 µM): 0.712 | relative viability (Olaparib + Luminespib; first compound 8 µM): 0.637 | relative viability (Olaparib + Vorinostat; first compound 0.08 µM): 1.08 | relative viability (Olaparib + Vorinostat; first compound 0.253 µM): 0.63 | relative viability (Olaparib + Vorinostat; first compound 2.53 µM): 0.615 | relative viability (Olaparib + Vorinostat; first compound 8 µM): 0.599

LCLC-103H
relative viability (Carfilzomib + Phenformin; first compound 0.001 µM): 0.328 | relative viability (Carfilzomib + Phenformin; first compound 0.003162 µM): 0.327 | relative viability (Carfilzomib + Phenformin; first compound 0.01 µM): 0.297 | relative viability (Carfilzomib + Phenformin; first compound 0.03162 µM): 0.285 | relative viability (Carfilzomib + Phenformin; first compound 0.1 µM): 0.17 | relative viability (Crizotinib + Tozasertib; first compound 0.01 µM): 0.37 | relative viability (Crizotinib + Tozasertib; first compound 0.03162 µM): 0.39 | relative viability (Crizotinib + Tozasertib; first compound 0.1 µM): 0.488 | relative viability (Crizotinib + Tozasertib; first compound 0.3162 µM): 0.451 | relative viability (Crizotinib + Tozasertib; first compound 1 µM): 0.578 | relative viability (Olaparib + Luminespib; first compound 0.08 µM): 1.21 | relative viability (Olaparib + Luminespib; first compound 0.253 µM): 0.805 | relative viability (Olaparib + Luminespib; first compound 2.53 µM): 1.19 | relative viability (Olaparib + Luminespib; first compound 8 µM): 0.769 | relative viability (Olaparib + Vorinostat; first compound 0.08 µM): 0.936 | relative viability (Olaparib + Vorinostat; first compound 0.253 µM): 0.762 | relative viability (Olaparib + Vorinostat; first compound 2.53 µM): 0.801 | relative viability (Olaparib + Vorinostat; first compound 8 µM): 0.678

LK-2
relative viability (Carfilzomib + Phenformin; first compound 0.001 µM): 0.628 | relative viability (Carfilzomib + Phenformin; first compound 0.003162 µM): 0.584 | relative viability (Carfilzomib + Phenformin; first compound 0.01 µM): 0.158 | relative viability (Carfilzomib + Phenformin; first compound 0.03162 µM): 0.119 | relative viability (Carfilzomib + Phenformin; first compound 0.1 µM): 0.182 | relative viability (Crizotinib + Tozasertib; first compound 0.01 µM): 0.173 | relative viability (Crizotinib + Tozasertib; first compound 0.03162 µM): 0.177 | relative viability (Crizotinib + Tozasertib; first compound 0.1 µM): 0.197 | relative viability (Crizotinib + Tozasertib; first compound 1 µM): 0.19 | relative viability (Olaparib + Luminespib; first compound 0.08 µM): 0.176 | relative viability (Olaparib + Luminespib; first compound 0.253 µM): 0.212 | relative viability (Olaparib + Luminespib; first compound 2.53 µM): 0.214 | relative viability (Olaparib + Luminespib; first compound 8 µM): 0.181 | relative viability (Olaparib + Vorinostat; first compound 0.08 µM): 0.391 | relative viability (Olaparib + Vorinostat; first compound 0.253 µM): 0.341 | relative viability (Olaparib + Vorinostat; first compound 2.53 µM): 0.345 | relative viability (Olaparib + Vorinostat; first compound 8 µM): 0.268

Reference: the supplement of paper PMC10307832
